Results from article PMC6478909 (Scientific Reports, 2019).
Read-outs that look alike come from different tables or passages of the source.

How the values were obtained:
[1] = target: T1, precorrin-4 C(11)-methyltransferase (CobM), Cp-CobM (Corynebacterium pseudotuberculosis, UniProt D9QAC4); experiment: biochemical; assay type: binding
[2] = target: T1, precorrin-4 C(11)-methyltransferase (CobM), Cp-CobM; experiment: biochemical; assay type: binding; remark: listed apart in the source

T1 sequence (D9QAC4 1-257): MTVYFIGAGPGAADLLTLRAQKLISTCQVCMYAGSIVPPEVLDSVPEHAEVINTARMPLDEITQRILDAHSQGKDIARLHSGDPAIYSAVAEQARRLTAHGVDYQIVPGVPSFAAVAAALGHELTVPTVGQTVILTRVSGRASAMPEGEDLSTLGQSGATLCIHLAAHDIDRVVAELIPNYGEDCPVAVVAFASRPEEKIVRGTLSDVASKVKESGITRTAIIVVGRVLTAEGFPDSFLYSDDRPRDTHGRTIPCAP

Row | SMILES | Kd [1] [µM] | Kd [2] [µM]
1 | C[S+](CC[C@H](N)C(=O)[O-])C[C@H]1O[C@@H](n2cnc3c(N)ncnc32)[C@H](O)[C@@H]1O (stereo partly shown) [SAM] | 1.4 ± 0.7 | –
2 | Nc1ncnc2nc[nH]c12 [adenine] | – | 17.8 ± 1.5
3 | Nc1ncnc2c1ncn2[C@H]1C[C@H](O)[C@@H](COP(=O)(O)OP(=O)(O)OP(=O)(O)O)O1 [dATP] | – | 15.8 ± 2
4 | Cc1ccc(C(=O)Nc2ccc(S(=O)(=O)O)c3cc(S(=O)(=O)O)cc(S(=O)(=O)O)c23)cc1NC(=O)c1cccc(NC(=O)Nc2cccc(C(=O)Nc3cc(C(=O)Nc4ccc(S(=O)(=O)O)c5cc(S(=O)(=O)O)cc(S(=O)(=O)O)c45)ccc3C)c2)c1 [suramin] | 6.3 ± 1.1 | –
